# Columns and labels:
# C2C12 cells = assay: Myoblast differentiation of C2C12 cells (MHC immunostaining and immunoblot); format: cell-based, mouse
# Procedure: The C2C12 cells were cultured in a general cell culture medium and a differentiation medium, respectively. DMEM supplemented with 15% fetal bovine serum was used as the normal cell culture medium (i.e., a growth medium (GM)), and DMEM supplemented with 2% horse serum was used as the differentiation medium (DM).
# The C2C12 cells whose differentiation was induced in Example 1 were washed with 1× PBS, and then fixed with 3.7% paraformaldehyde at room temperature. Thereafter, a permeabilization buffer was added thereto, and reacted at room temperature. Unspecific antibody binding was inhibited by reacting with PBST (a blocking buffer) containing 3% BSA and PBS containing 0.1% Tween 20. A primary antibody against a myosin heavy chain (MHC) was diluted 1:500 in a blocking buffer, added, and reacted at room temperature. A secondary antibody diluted 1:5000 in a blocking buffer was added, and reacted at room temperature.
# The C2C12 cells whose differentiation was induced in Example 1 were collected, lysed by adding a lysis buffer (20 mM Tris-HCl, pH 8.0, 150 mM NaCl, 1% Triton X, a proteinase inhibitor), and then the cell lysis sample was quantified. Thereafter, the same amount of protein was subjected to SDS-PAGE electrophoresis, and transferred to a PVDF membrane. […]
# PGC-1α promoter = assay: PGC-1α reporter (luciferase) assay; format: cell-based, mouse
# Procedure: Immediately after cells were seeded at a density of 1×10^4 cells/well in a 96-well culture plate, the cells were transfected by treating the cells with PGC-1α (DNA) and a plasmid at a ratio of [150 ng/10 μL]+[0.3 μL/10 μL] per well. […] After 24 hours of drug treatment, the cells were lysed in 30 μL of a passive lysis buffer (Promega) per well, and the dissolved cell solution was transferred to a plate for luminometer reading. Then, an equal amount of luciferin, which is a substrate of luciferase, was subjected to an enzymatic reaction to determine the degree of luminescence. The measured values were standardized for each well and plate, and expressed as a relative ratio using the measured values in the wells treated with DMSO, which is a solvent of the compound, as the control. The expression level of luciferase in the PGC-1α reporter cell line depends on the stimulation received by a PGC-1α promoter. That is, if the compound is a PGC-1α expression inducer, it stimulates the PGC-1a promoter to increase the expression of luciferase, and if the compound is a PGC-1α expression inhibitor, luciferase expression decreases.
# PGC-1α = PGC-1α mRNA expression by qRT-PCR in C2C12 cells; format: cell-based, mouse; settings: differentiating C2C12, qRT-PCR, normalized to 18s rRNA, vs control
# Procedure: (§1) Cells were seeded into the cell culture medium (GM), and cultured for 24 hours. Thereafter, the differentiation medium (DM) was treated with DMSO and inotodiol (0.1, 0.5, 1.0, and 10 μM) at different concentrations, and differentiation was induced for 2 to 3 days.
# The C2C12 cells whose differentiation was induced in Example 1 were lysed using an Easy-spin Total RNA Extraction kit, and chloroform was added thereto. Then, the C2C12 cells were centrifuged. After the supernatant was separated, the same volume of isopropanol was added and bound to the cells. After centrifugation, the cells were washed with 70% EtOH mixed with DEPC water, and the concentration of RNA was quantified by adding 20 to 50 μL of a DEPC solution. RNA was reverse-transcribed using a PrimeScript cDNA synthesis kit to synthesize cDNA. Then, the gene expression was analyzed by qRT-PCR in a real-time PCR system using SYBR Premix EX Taq. Fold changes in gene expression were normalized against the expression of ribosomal gene 18s rRNA.
# ATPSA, MTCO1, and NDUF88 = assay: Mitochondrial activity markers (T-OxPHOS immunoblotting) in C2C12 myoblasts; format: cell-based, mouse; settings: inotodiol at each concentration
# Procedure: as §1
# To induce the differentiation of C2C12 myoblasts in the same manner as in Example 1 and check mitochondrial activity, the expression characteristics of a T-OxPHOS antibody mixed with ATPSA, MTCO1, and NDUF88 were confirmed through immunoblotting. For each of the proteins included in the T-OxPHOS antibody, ATPSA is a constituent protein of ATP synthase that contributes to the ATP synthesis in mitochondria, MTCO1 is associated with the oxidase activity of cytochrome-c, which is a component of the electron transport system in the inner membrane of mitochondria, and NDUF 88 encodes a subunit of NADH:ubiquinone oxidoreductase (Complex 1), which is the first enzyme complex in the mitochondrial electron transport system.
# muscle stem cells = assay: Muscle stem cell proliferation (BrdU analysis) after CTX muscle damage; format: in vivo, mouse
# Procedure: To induce muscle damage, CTX was injected into the mice to which inotodiol was administered once a day for 7 days. Then, it was determined through BrdU analysis whether or not the proliferation of muscle stem cells was enhanced (FIG. 10).
# muscle fibrosis = assay: Muscle fibrosis in CTX muscle damage mouse model; format: in vivo; settings: then inotodiol
# high-fat diet mice = assay: Exercise capacity in high-fat diet mouse model (treadmill, grip test); format: in vivo; settings: high-fat diet-fed mice
# Procedure: When inotodiol was administered to high-fat diet mice, the effects on muscle strength and exercise performance ability were determined. After inotodiol was administered to a high-fat diet-fed mouse model, the exercise duration and movement distance were measured through a treadmill experiment. […] As a result of the grip test, it was also confirmed that the high-fat diet mouse model had lower muscle strength than the mean muscle strength.
# [1] = tested on: mouse model in which myoatrophy is induced by DEX; assay: Myotube atrophy in myoatrophy-induced (DEX) mouse model; format: in vivo; settings: DEX (dexamethasone 20 mg/kg) model
# Procedure: Experimental animals were grouped into 10 animals having a similar body weight, and dexamethasone was administered at a dose of 20 mg/kg to one group to induce […].
# For the myoatrophy mouse model of Example 3, the effects of alleviating and recovering myotube atrophy were determined when inotodiol was administered.
# normal mice = assay: Long-term (2 months) inotodiol administration to normal mice; format: in vivo, mouse
# Procedure: For normal mice in which the muscle damage or muscle atrophy was not induced, an experiment was conducted to determine whether there was an effect of increasing muscle mass and muscle strength when inotodiol was administered. For the mice to which inotodiol was administered for 2 months, an experiment was conducted to measure a change in muscle mass and muscle strength of hindlimb muscles after the administration of inotodiol (a grip test).
# [2] = tested on: mouse model in which muscle damage is induced by CTX; settings: CTX mice
# Procedure: Ten 5-month-old C57BL/6 male mice were used as experimental animals.
# However, each of the weights of the hindlimb muscle tissues, such as the tibialis anterior muscle (TA), extensor digitorum longus muscle (EDL), soleus muscle (Sol), and gastrocnemius muscle (Gas), of the experimental animals was measured.
# Hematoxylin & eosin staining (H&E staining) was performed using the TA muscle isolated from the tissue of each of the experimental animals. Frozen sections fixed with 4% paraformaldehyde were stained with hematoxylin and stained with eosin for contrast staining, mounted, and observed under an optical microscope.
# The relative mRNA expression levels were compared for each muscle type of Myh7 (MHCI), Myh2 (MHCIIa), Myh4 (MHCIIb), and Myh1 (MHCIIx).
# [3] = inotodiol once a day for 7 days, then CTX
# [4] = 2 months administration, vs control
# [5] = 300 μg/kg oral, 21 days after CTX
structure (smiles),measurement,setting,value
CC(C)=CC[C@@H](O)[C@@H](C)[C@H]1CC[C@@]2(C)C3=C(CC[C@]12C)[C@@]1(C)CC[C@H](O)C(C)(C)C1CC3 (some centres unmarked) [inotodiol],formation of multinucleated myotubes,"C2C12 cells; C2C12, inotodiol 0.1, 0.5, 1.0, 10 μM, immunostaining on day 2 of differentiation",increased in a concentration-dependent manner
same,expression level of MHC (differentiation marker),"C2C12 cells; C2C12, inotodiol at different concentrations, immunoblot, vs DMSO-treated control",increased in a concentration-dependent manner
same,luciferase activity for PGC-1α,"PGC-1α promoter; inotodiol 0.1, 0.5, 1.0 μM, 24 h, relative to DMSO",increased in an inotodiol concentration-dependent manner
same,luciferase activity for PGC-1α compared with positive control,PGC-1α promoter; vs 0.5 mM AICAR positive control,higher than that of 0.5 mM AICAR
same,mRNA expression for PGC-1α,PGC-1α,significantly increased compared to the control
same,"expression level of mitochondrial proteins (ATPSA, MTCO1, NDUF88)","ATPSA, MTCO1, and NDUF88",increased in proportion to the concentration of inotodiol
same,expression of genes involved in muscle growth,muscle stem cells; CTX muscle damage,effect of enhancing the expression of genes involved in muscle growth was confirmed
same,relative mRNA expression levels of genes involved in the cell cycle,muscle stem cells; CTX muscle damage,increased
same,expression level of BrdU in muscle tissues,muscle stem cells; [3],increased
same,expression levels of Pax7 and Ki67 and expression ratio of Ki67 to Pax7,muscle stem cells; [3],increased
same,area of the muscle tissue in which fibrosis progressed,muscle fibrosis,reduced
same,muscle fibrosis in muscle tissue,muscle fibrosis,fibrosis was ameliorated
same,"exercise capacity (exercise duration and movement distance, treadmill)",high-fat diet mice,recovered exercise capacity to the level of the normal control
same,muscle strength (grip test),high-fat diet mice,muscle strength was improved
same,cross-sectional area of myotubes,[1],restored to the same level as that of the normal group
same,size of muscles and muscle fibers,[1],increased
same,hindlimb muscle mass,normal mice; [4],increased
same,muscle strength (grip test),normal mice; [4],also increased
same,weight of fat relative to weight gain,normal mice; long-term administration,increased relatively less
same,weight-to-muscle ratio,normal mice; long-term administration,higher than that of the non-administered group
same,expression levels of PGC-1α and mitochondrial-related genes in muscle,"normal mice; long-term administration, vs control",increased compared to the control
same,"increase in muscle mass, extensor digitorum longus muscle (EDL), vs control",[2]; [5],18.9%
same,"increase in muscle mass, gastrocnemius muscle (Gas), vs control",[2]; [5],9.5%
same,"increase in muscle mass, soleus muscle (Sol), vs control",[2]; [5],5.2%
same,"increase in muscle mass, tibialis anterior muscle (TA), vs control",[2]; [5],16.0%
same,expression of Myh2 (MHCIIa),[2]; 21 days after muscle damage,tended to greatly increase
same,"relative mRNA expression levels of muscle fiber types Myh7, Myh2, Myh4, Myh1",[2]; 21 days after muscle damage,no significant difference
same,blood glucose,"[2]; day 21 after induction of muscle damage, vs control",blood glucose-lowering effect was confirmed
same,increase in grip strength vs control,"[2]; day 21 after muscle damage, grip strength test",approximately 6.8%
same,change in body weight,"[2]; inotodiol 300 μg/kg oral, 21 days after CTX",no change in body weight was observed
same,increase in muscle fiber cross-sectional area (CSA) of TA muscle vs control,[2]; laminin staining,89.4%
same,muscle regeneration (H&E staining of TA muscle),[2]; vs control,significant muscle regeneration effect

# Reference: US20240261301A1, “COMPOSITION COMPRISING INOTODIOL FOR PREVENTION OR TREATMENT OF MUSCULAR DISEASE” (ANIMUSCURE INC., priority 2021, published 2024)
